Source: the NIST ThermoML archive (doi:10.1016/j.tca.2012.10.004)
Numbers after ± are expanded uncertainties.

Columns and labels:
[1] = relative permittivity at zero frequency (dimensionless); xn = mol fraction of the nth substance listed; details: 101 kPa, Liquid, Coaxial cylinder capacitor
[2] = refractive index (Na D-line) (dimensionless); xn = mol fraction of the nth substance listed; details: 101 kPa, Liquid, Standard Abbe refractometry

CN(CCO)CCO [N-methyldiethanolamine] + O=S1(=O)CCCC1
Details	refractive index, [2]	relative permittivity at zero frequency, [1]
293.15 K, x1 = 0.1001	1.48265 ± 0.00037	40.8 ± 1.6
293.15 K, x1 = 0.2012	1.48037 ± 0.00037	38.3 ± 1.5
293.15 K, x1 = 0.2999	1.47845 ± 0.00037	35.5 ± 1.4
293.15 K, x1 = 0.4003	1.4766 ± 0.00037	33.5 ± 1.3
293.15 K, x1 = 0.5005	1.47489 ± 0.00037	31.7 ± 1.3
293.15 K, x1 = 0.6	1.47343 ± 0.00037	30.2 ± 1.2
293.15 K, x1 = 0.7002	1.47207 ± 0.00037	28.4 ± 1.1
293.15 K, x1 = 0.8011	1.47093 ± 0.00037	26.6 ± 1.1
293.15 K, x1 = 0.8998	1.47017 ± 0.00037	24.6 ± 1
293.15 K, x1 = 1	1.46935 ± 0.00037	22.9 ± 0.9
298.15 K, x1 = 0.1001	1.48095 ± 0.00037	40.1 ± 1.6
298.15 K, x1 = 0.2012	1.47872 ± 0.00037	37.6 ± 1.5
298.15 K, x1 = 0.2999	1.47672 ± 0.00037	34.8 ± 1.4
298.15 K, x1 = 0.4003	1.47488 ± 0.00037	32.8 ± 1.3
298.15 K, x1 = 0.5005	1.47316 ± 0.00037	31 ± 1.2
298.15 K, x1 = 0.6	1.47164 ± 0.00037	29.5 ± 1.2
298.15 K, x1 = 0.7002	1.47023 ± 0.00037	27.7 ± 1.1
298.15 K, x1 = 0.8011	1.469 ± 0.00037	26 ± 1
298.15 K, x1 = 0.8998	1.46802 ± 0.00037	24.1 ± 1
298.15 K, x1 = 1	1.46724 ± 0.00037	22.4 ± 0.9
303.15 K, x1 = 0.1001	1.47886 ± 0.00037	39.4 ± 1.6
303.15 K, x1 = 0.2012	1.4767 ± 0.00037	36.9 ± 1.5
303.15 K, x1 = 0.2999	1.47473 ± 0.00037	34.1 ± 1.4
303.15 K, x1 = 0.4003	1.47288 ± 0.00037	32.1 ± 1.3
303.15 K, x1 = 0.5005	1.47124 ± 0.00037	30.3 ± 1.2
303.15 K, x1 = 0.6	1.46976 ± 0.00037	28.8 ± 1.2
303.15 K, x1 = 0.7002	1.46844 ± 0.00037	27 ± 1.1
303.15 K, x1 = 0.8011	1.46717 ± 0.00037	25.3 ± 1
303.15 K, x1 = 0.8998	1.46615 ± 0.00037	23.6 ± 0.9
303.15 K, x1 = 1	1.46532 ± 0.00037	21.8 ± 0.9
308.15 K, x1 = 0.1001	1.47712 ± 0.00037	38.7 ± 1.5
308.15 K, x1 = 0.2012	1.47488 ± 0.00037	36.1 ± 1.4
308.15 K, x1 = 0.2999	1.47281 ± 0.00037	33.4 ± 1.3
308.15 K, x1 = 0.4003	1.47099 ± 0.00037	31.3 ± 1.3
308.15 K, x1 = 0.5005	1.46931 ± 0.00037	29.5 ± 1.2
308.15 K, x1 = 0.6	1.46777 ± 0.00037	28.1 ± 1.1
308.15 K, x1 = 0.7002	1.46639 ± 0.00037	26.3 ± 1.1
308.15 K, x1 = 0.8011	1.46513 ± 0.00037	24.6 ± 1
308.15 K, x1 = 0.8998	1.46413 ± 0.00037	22.9 ± 0.9
308.15 K, x1 = 1	1.4631 ± 0.00037	21.3 ± 0.9
313.15 K, x1 = 0.1001	1.47549 ± 0.00037	38 ± 1.5
313.15 K, x1 = 0.2012	1.47327 ± 0.00037	35.5 ± 1.4
313.15 K, x1 = 0.2999	1.47109 ± 0.00037	32.7 ± 1.3
313.15 K, x1 = 0.4003	1.46919 ± 0.00037	30.6 ± 1.2
313.15 K, x1 = 0.5005	1.46741 ± 0.00037	28.7 ± 1.1
313.15 K, x1 = 0.6	1.46584 ± 0.00037	27.4 ± 1.1
313.15 K, x1 = 0.7002	1.46442 ± 0.00037	25.6 ± 1
313.15 K, x1 = 0.8011	1.46301 ± 0.00037	24 ± 1
313.15 K, x1 = 0.8998	1.46184 ± 0.00037	22.2 ± 0.9
313.15 K, x1 = 1	1.46074 ± 0.00037	20.8 ± 0.8
318.15 K, x1 = 0.1001	1.47376 ± 0.00037	37.4 ± 1.5
318.15 K, x1 = 0.2012	1.47154 ± 0.00037	34.6 ± 1.4
318.15 K, x1 = 0.2999	1.46941 ± 0.00037	32 ± 1.3
318.15 K, x1 = 0.4003	1.46751 ± 0.00037	29.9 ± 1.2
318.15 K, x1 = 0.5005	1.46573 ± 0.00037	28 ± 1.1
318.15 K, x1 = 0.6	1.46414 ± 0.00037	26.7 ± 1.1
318.15 K, x1 = 0.7002	1.46267 ± 0.00037	24.9 ± 1
318.15 K, x1 = 0.8011	1.46127 ± 0.00037	23.3 ± 0.9
318.15 K, x1 = 0.8998	1.46005 ± 0.00037	21.7 ± 0.9
318.15 K, x1 = 1	1.45892 ± 0.00037	20.3 ± 0.8
323.15 K, x1 = 0.1001	1.47203 ± 0.00037	36.7 ± 1.5
323.15 K, x1 = 0.2012	1.46976 ± 0.00037	33.9 ± 1.4
323.15 K, x1 = 0.2999	1.46769 ± 0.00037	31.3 ± 1.3
323.15 K, x1 = 0.4003	1.46581 ± 0.00037	29.2 ± 1.2
323.15 K, x1 = 0.5005	1.46403 ± 0.00037	27.3 ± 1.1
323.15 K, x1 = 0.6	1.46242 ± 0.00037	26 ± 1
323.15 K, x1 = 0.7002	1.46091 ± 0.00037	24.2 ± 1
323.15 K, x1 = 0.8011	1.45949 ± 0.00037	22.7 ± 0.9
323.15 K, x1 = 0.8998	1.45821 ± 0.00037	21.2 ± 0.8
323.15 K, x1 = 1	1.45708 ± 0.00037	19.8 ± 0.8
328.15 K, x1 = 0.1001	1.47021 ± 0.00037	36.2 ± 1.4
328.15 K, x1 = 0.2012	1.46788 ± 0.00037	33.2 ± 1.3
328.15 K, x1 = 0.2999	1.46596 ± 0.00037	30.6 ± 1.2
328.15 K, x1 = 0.4003	1.46404 ± 0.00037	28.5 ± 1.1
328.15 K, x1 = 0.5005	1.46226 ± 0.00037	26.5 ± 1.1
328.15 K, x1 = 0.6	1.46061 ± 0.00037	25.2 ± 1
328.15 K, x1 = 0.7002	1.45905 ± 0.00037	23.5 ± 0.9
328.15 K, x1 = 0.8011	1.45761 ± 0.00037	22.1 ± 0.9
328.15 K, x1 = 0.8998	1.45636 ± 0.00037	20.5 ± 0.8
328.15 K, x1 = 1	1.45513 ± 0.00037	19.3 ± 0.8
